Structures can show the parent of a compound that is named as a salt.

The experiment relates to Huh7 liver cancer cells. In words: in vitro cytotoxicity evaluation (viability analysis). The format is cell-based. The settings on record: FIG. 7. The protocol: Viability analysis was performed on Huh7 liver cancer cells to evaluate the toxicity of the prepared nanoparticles. Three groups were evaluated: doxorubicin hydrochloride (dox), particles loaded with doxorubicin (032d), and particles not loaded with doxorubicin (032).

`COc1cccc2c1C(=O)c1c(O)c3c(c(O)c1C2=O)C[C@@](O)(C(=O)CO)C[C@@H]3O[C@H]1C[C@H](N)[C@H](O)[C@H](C)O1` [doxorubicin hydrochloride]: the “cell viability / cancer cell killing effect” value is reported as “cancer cell killing effect in a concentration-dependent manner”.
